{"source": "the Kinase Knowledgebase extract (Sharma et al. 2016)"}
{"target": "PIK3CA (human) (UniProt P42336)", "sequence (P42336 whole entry, looked up)": "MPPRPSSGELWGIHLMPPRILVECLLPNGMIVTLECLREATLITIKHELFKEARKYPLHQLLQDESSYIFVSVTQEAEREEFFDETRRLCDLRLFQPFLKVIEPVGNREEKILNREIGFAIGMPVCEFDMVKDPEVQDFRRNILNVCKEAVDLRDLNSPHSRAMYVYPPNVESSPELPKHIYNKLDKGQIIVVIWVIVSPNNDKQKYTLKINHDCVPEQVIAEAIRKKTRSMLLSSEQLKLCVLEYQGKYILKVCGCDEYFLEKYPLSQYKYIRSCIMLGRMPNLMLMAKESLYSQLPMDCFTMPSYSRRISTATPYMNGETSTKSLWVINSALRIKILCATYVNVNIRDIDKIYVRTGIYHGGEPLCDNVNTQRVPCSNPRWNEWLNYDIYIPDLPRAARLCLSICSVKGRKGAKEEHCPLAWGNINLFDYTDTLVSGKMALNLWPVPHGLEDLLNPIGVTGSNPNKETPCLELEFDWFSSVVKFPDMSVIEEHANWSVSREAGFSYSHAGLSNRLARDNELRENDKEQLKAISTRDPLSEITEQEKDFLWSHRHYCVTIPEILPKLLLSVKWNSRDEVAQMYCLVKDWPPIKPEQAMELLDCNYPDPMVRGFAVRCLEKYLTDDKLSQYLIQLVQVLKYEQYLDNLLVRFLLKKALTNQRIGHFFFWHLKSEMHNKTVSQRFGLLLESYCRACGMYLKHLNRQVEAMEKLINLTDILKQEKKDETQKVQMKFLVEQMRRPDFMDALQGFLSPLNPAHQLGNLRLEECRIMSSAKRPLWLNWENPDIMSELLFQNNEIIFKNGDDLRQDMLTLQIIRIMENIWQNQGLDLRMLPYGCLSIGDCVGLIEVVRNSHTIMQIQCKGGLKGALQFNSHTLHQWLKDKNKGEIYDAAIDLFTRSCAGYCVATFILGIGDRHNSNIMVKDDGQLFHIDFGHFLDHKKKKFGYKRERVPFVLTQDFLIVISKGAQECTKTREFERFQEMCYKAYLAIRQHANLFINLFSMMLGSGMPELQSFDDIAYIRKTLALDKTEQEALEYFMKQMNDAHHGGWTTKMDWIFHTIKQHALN", "experiment": "Inhibition of PIK3CA Kinase Activity", "units": {"IC50": "nM"}}
{"smiles": "COc1ccc2c(N3CCOc4ccc(-c5ccc6[nH]c(=O)[nH]c6c5)cc4C3)nc(C)nc2c1", "IC50": "250 to 1000"}
{"smiles": "COc1cccc(Cc2c(C)ncnc2N2CCOc3ccc(-c4ccc5nc(C)[nH]c5c4)cc3C2)c1", "IC50": "10 to 50"}
{"smiles": "Nc1nc2ncc(-c3ccc4c(c3)CN(c3ncnc5ccc(I)cc35)CCO4)cc2[nH]1", "IC50": "≤ 10"}
{"smiles": "COc1ccc2c(N3CCOc4ccc(-c5ccc(N)cc5)cc4C3)nc(C)nc2c1", "IC50": "250 to 1000"}
{"smiles": "CC1(C)CCc2ncnc(N3CCOc4ccc(-c5cnc(N)c(S(=O)(=O)N[C@H]6CCNC6)c5)cc4C3)c2C1", "IC50": "10 to 50"}
{"smiles": "Cc1nc2cc(-c3ccc4c(c3)CN(c3nc(CN(C)C)ncc3C(C)C)CCO4)ccc2[nH]1", "IC50": "10 to 50"}
{"smiles": "CCc1ncnc(N2CCOc3ccc(-c4ccc5nc(C)[nH]c5c4)cc3C2)c1C", "IC50": "50 to 250"}
{"smiles": "Cc1nc2ccc(-c3ccc4c(c3)CN(c3ncnc5cc(S(C)(=O)=O)ccc35)CCO4)cc2[nH]1", "IC50": "50 to 250"}
{"smiles": "CC1(C)CCc2ncnc(N3CCOc4ccc(-c5cnc6sc(N)nc6c5)cc4C3)c2C1", "IC50": "10 to 50"}
{"smiles": "CCc1c(C)nc(CN(C)C)nc1N1CCOc2ccc(-c3cnc4sc(N)nc4c3)cc2C1", "IC50": "≤ 10"}
{"smiles": "Cc1nc2ncc(-c3ccc4c(c3)CN(c3ncnc5c3CCC(C)(c3ccccc3)C5)CCO4)cc2[nH]1", "note": "(stereo not given)", "IC50": "10 to 50"}
{"smiles": "Cc1nc2ccc(-c3ccc4c(c3)CN(c3ncnc5c(C)cccc35)CCO4)cc2[nH]1", "IC50": "10 to 50"}
{"smiles": "CC1(C)CCc2ncnc(N3CCOc4ccc(-c5cnc(N)c(S(=O)(=O)NCC6CCCCN6)c5)cc4C3)c2C1", "note": "(stereo not given)", "IC50": "50 to 250"}
{"smiles": "COc1ccc(-c2ccc3c(c2)CN(c2nc(CN(C)C)nc4c2CC(C)(C)CC4)CCO3)cc1Cl", "IC50": "250 to 1000"}
{"smiles": "Cc1nc2ccc(-c3ccc4c(c3)CN(c3ncnc(C)c3Cc3ccccc3C)CCO4)cc2[nH]1", "IC50": "50 to 250"}
{"smiles": "COC(=O)Nc1nc2ccc(-c3ccc4c(c3)CN(c3ncnc5ccccc35)CCO4)cc2[nH]1", "IC50": "10 to 50"}
{"smiles": "Cc1nc2ccc(-c3ccc4c(c3)CN(c3ccnc(C)c3Cc3ccccc3)CCO4)cc2[nH]1", "IC50": "10 to 50"}
{"smiles": "Cc1nc2ncc(-c3ccc4c(c3)CN(c3nc(CN(C)C)nc5c3CC(C)(C)CC5)CCO4)cc2[nH]1", "IC50": "≤ 10"}
{"smiles": "COCCOc1cc(-c2ccc3c(c2)CN(c2nc(CN(C)C)nc4c2CC(C)(C)CC4)CCO3)ccc1OC", "IC50": "50 to 250"}
{"smiles": "CN(C)S(=O)(=O)c1cncc(-c2ccc3c(c2)CN(c2ncnc4c2CC(C)(C)CC4)CCO3)c1", "IC50": "50 to 250"}
{"smiles": "Nc1nc2ncc(-c3ccc4c(c3)CN(c3ncnc5ccc(Cl)cc35)CCO4)cc2[nH]1", "IC50": "≤ 10"}
{"smiles": "Cc1nc2cc(-c3ccc4c(c3)CN(c3nc(CN(C)C)nc(C)c3Cc3ccc(F)cc3)CCO4)cnc2[nH]1", "IC50": "≤ 10"}
{"smiles": "CC1(C)CCc2ncnc(N3CCOc4ccc(-c5ccc(Cl)c(NS(C)(=O)=O)c5)cc4C3)c2C1", "IC50": "250 to 1000"}
{"smiles": "CC1(C)CCc2ncnc(N3CCOc4ccc(-c5ccc6nc(NCCF)[nH]c6c5)cc4C3)c2C1", "IC50": "10 to 50"}
{"smiles": "CC1(C)CCc2ncnc(N3CCOc4ccc(-c5cnc(N)c(S(=O)(=O)NC[C@H]6CCCNC6)c5)cc4C3)c2C1", "IC50": "50 to 250"}
{"smiles": "CN(C)C1CN(S(=O)(=O)c2cc(-c3ccc4c(c3)CN(c3ncnc5c3CC(C)(C)CC5)CCO4)cnc2N)C1", "IC50": "50 to 250"}
{"smiles": "CC1=CC(C)(C)Cc2c1ncnc2N1CCOc2ccc(-c3cnc(N)c(S(=O)(=O)N[C@@H]4CCN(C)C4)c3)cc2C1", "IC50": "50 to 250"}
{"smiles": "COc1ccc2c(N3CCOc4ccc(-c5cnc6[nH]cnc6c5)cc4C3)nc(CN(C)C)nc2c1", "IC50": "≤ 10"}
{"smiles": "CC(N)CNS(=O)(=O)c1cc(-c2ccc3c(c2)CN(c2ncnc4c2CC(C)(C)CC4)CCO3)cnc1N", "note": "(stereo not given)", "IC50": "50 to 250"}
{"smiles": "Cc1ncnc(N2CCOc3ccc(-c4cnc(N)nc4)cc3C2)c1Cc1ccc(F)cc1", "IC50": "50 to 250"}
{"smiles": "CC[C@H]1CCc2c(ncnc2N2CCOc3ccc(-c4cnc5nc([C@H](C)N)[nH]c5c4)cc3C2)C1", "IC50": "50 to 250"}
{"smiles": "CCNc1nc2ccc(-c3ccc4c(c3)CN(c3ccnc5cc(F)ccc35)CCO4)cc2[nH]1", "IC50": "≤ 10"}
{"smiles": "Cc1nc(CN(C)C)nc(N2CCOc3ccc(-c4ccc5[nH]c(C(F)F)nc5c4)cc3C2)c1Cc1ccc(F)cc1", "IC50": "≤ 10"}
{"smiles": "CC1(C)CCc2ncnc(N3CCOc4ccc(-c5cnc(N)c(S(=O)(=O)N6CC(O)C6)c5)cc4C3)c2C1", "IC50": "≤ 10"}
{"smiles": "CC1(C)CCc2ncnc(N3CCOc4ccc(-c5cnc(N)c(S(=O)(=O)N6CC[C@@H](N)C6)c5)cc4C3)c2C1", "IC50": "10 to 50"}
